The values that follow come from patent US9012446B2, “Amino-oxazines and amino-dihydrothiazine compounds as beta-secretase modulators and methods of use” (Amgen Inc., priority 2010, dated 2015).

One test deals with Aβ40. The experiment in a line: In vitro BACE cell-based assay (Aβ40 sandwich ELISA, cells stably expressing APP). Particulars: Homo sapiens. The method, boiled down: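 Read-out is Aβ40 in cell supernatants, quantified by sandwich ELISA (capture 3 h, detection 2 h, both 4° C) with Delfia time-resolved fluorescence. Cells stably expressing APP were dosed across 10 concentrations from 100 μM or 10 μM top, 0.1% DMSO final; IC50 fitted from percent of control.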

The subject of the next test is Abeta 40. Nature of the test: In vivo inhibition of beta-secretase: Abeta 40 reduction in CSF and brain of the rat. The following applies: 10 mpk, after 4 hrs. The text has this:
In Vivo Inhibition of Beta-Secretase
Several animal models, including mouse, rat, dog, and monkey, may be used to screen for inhibition of beta-secretase activity in vivo following administration of a test compound sample. Animals used in this invention can be wild type, transgenic, or gene knockout animals. For example, the Tg2576 mouse model, prepared and conducted as described in Hsiao et al., 1996, Science 274, 99-102, and other non-transgenic or gene knockout animals are useful to analyze in vivo inhibition of Amyloid beta peptide (Abeta) production in the presence of inhibitory test compounds. Generally, 2 to 18 month old Tg2576 mice, gene knockout mice or non-transgenic animals are administered test compounds formulated in vehicles, such as cyclodextran, phosphate buffers, hydroxypropyl methylcellulose or other suitable vehicles. One to twenty-four hours following the administration of compound, animals are sacrificed, and brains as well as cerebrospinal fluid (CSF) and plasma are removed for analysis of A-beta levels and drug or test compound concentrations (Dovey et al., 2001, Journal of Neurochemistry, 76,173-181) Beginning at time 0, animals are administered by oral gavage, or other means of delivery such as intravenous injection, an inhibitory test compound of up to 100 mg/kg in a standard, conventional formulation, such as 2% hydroxypropyl methylcellulose, 1% Tween80. A separate group of animals receive 2% hydroxypropyl methylcellulose, 1% Tween80 alone, containing no test compound, and serve as a vehicle-control group. At the end of the test period, animals are sacrificed and brain tissues, plasma or cerebrospinal fluid are collected. Brains are either homogenized in 10 volumes (w/v) of 0.2% diethylamine (DEA) in 50 mM NaCl (Best et al., 2005, Journal of Pharmacology and Experimental Therapeutics, 313, 902-908), or in 10 volumes of 0.5% TritonX-100 in Tris-buffered saline (pH at about 7.6). Homogenates are centrifuged at 355,000 g, 4° C. for 30 minutes. CSF or brain supernatants are then analyzed for the presence of A-beta peptide by specific sandwich ELISA assays based on ECL (Electrochemiluminescence) technology. For example, rat Abeta40 is measured using biotinylated-4G8 (Signet) as a capture antibody and Fab40 (an in-house antibody specific to the C-terminal of Abeta40) as a detection antibody. For example, 4 hours after administration of 30 mg/kg oral dose of the test compound in 2% hydroxypropyl methylcellulose, 1% Tween80 (pH2.2) to 200 g male Sprague Dawley rats, amyloid beta peptide levels are measured for reduction by X % and Y % in cerebrospinal fluid and brain, respectively, when compared to the levels measured in the vehicle-treated rats. • Actual vehicles used: Oral: 2% HPMC, 1% Tween80, pH 2.2 • IV: 5% EtOH, 45% Propylene glycol in 5% Dextrose
The compounds of the invention may be shown to reduce the formation and/or deposition of amyloid beta peptide in the cerebrospinal fluid (CSF) as well as in the brain of a mouse or rat at either 3 mpk, 10 mpk or 30 mpk (mpk=mg compound per kg weight of the animal) dosing concentrations after 4 hrs.

A further test addresses BACE (Homo sapiens, UniProt P56817). Nature of the test: In vitro enzymatic BACE FRET assay. Type of test: biochemical. The following applies: average IC50, enzyme assay; read-out: BACE 1 FRET assay. Summed up: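 Fluorescence […] after Tris quench reports cleavage of a 50 nM quenched peptide substrate over 1 h. Beforehand, 0.2 nM enzyme sits 1 h with inhibitor dilutions. Buffer: 0.05 M acetate pH 4.2, 100 uM genapol, 10% DMSO final.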

Where [1] appears, read: HEK293, average IC50, read-out: HEK cell assay.
Setting [2] is: Abeta 40, rat CSF, read-out: % reduction of rat CSF levels at 10 pmk.
[3] abbreviates: Abeta 40, rat brain, read-out: % reduction of rat brain levels at 10 mpk.
Setting [4] is: HEK293, average IC50, cell assay, HEK cells.

Like-named read-outs stand apart in the source and are kept apart here.

BACE, sequence (P56817 46-501, species assumed): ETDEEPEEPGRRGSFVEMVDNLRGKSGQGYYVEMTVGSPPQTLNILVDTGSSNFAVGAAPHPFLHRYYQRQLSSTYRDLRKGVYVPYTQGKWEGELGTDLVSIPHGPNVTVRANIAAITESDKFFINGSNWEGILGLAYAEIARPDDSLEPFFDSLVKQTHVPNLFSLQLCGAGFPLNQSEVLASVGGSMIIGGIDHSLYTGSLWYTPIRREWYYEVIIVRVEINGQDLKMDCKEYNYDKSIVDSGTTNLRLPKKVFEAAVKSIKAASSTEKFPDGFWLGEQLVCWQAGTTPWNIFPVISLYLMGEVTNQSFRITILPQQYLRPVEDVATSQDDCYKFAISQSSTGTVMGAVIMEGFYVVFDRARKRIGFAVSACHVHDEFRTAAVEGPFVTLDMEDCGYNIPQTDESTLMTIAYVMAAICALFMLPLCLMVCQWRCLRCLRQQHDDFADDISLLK

For `CC(C)(C)C#Cc1cnc2c(c1)[C@]1(CCOC(N)=N1)c1cc(-c3cccnc3F)ccc1O2` [Example 270, (S)-3-(3,3-dimethylbut-1-ynyl)-7-(2-fluoropyridin-3-yl)-5′,6′-dihydrospiro[chromeno[2,3-b]pyridine-5,4′-[1,3]oxazin]-2′-amine], the IC50 in the test on Aβ40 (setting [1]) came out at 4.9 nM; at BACE, 3.1 nM. Moreover, the inhibition in vivo at 10 mg/kg with Abeta 40 (setting [2]) amounted to 70%; with Abeta 40 (setting [3]) it was 52%.

Regarding `NC1=N[C@@]2(CCO1)c1cc(-c3cccnc3F)ccc1Oc1c(F)cc(C3=CCCOC3)cc12` [Example 173, (S)-2′-(5,6-dihydro-2H-pyran-3-yl)-4′-fluoro-7′-(2-fluoropyridin-3-yl)-5,6-dihydrospiro[[1,3]oxazine-4,9′-xanthen]-2-amine], the IC50 came out at 2.9 nM in the test with Aβ40 (setting [1]) and 1.1 nM at BACE. Also, the inhibition in vivo at 10 mg/kg came out at 40% in the test on Abeta 40 (setting [2]) and 14% in the test on Abeta 40 (setting [3]).

Consider `CC1(C#Cc2cc(F)c3c(c2)[C@]2(CCOC(N)=N2)c2cc(-c4cccnc4F)ccc2O3)COC1` [Example 17A, (S)-4′-fluoro-7′-(2-fluoropyridin-3-yl)-2′-((3-methyloxetan-3-yl)ethynyl)-5,6-dihydrospiro[[1,3]oxazine-4,9′-xanthen]-2-amine], for which the results for the IC50 in the test on Aβ40 (setting [1]) and on BACE were 2.6 nM and 3.3 nM, respectively. For the same molecule, the inhibition in vivo at 10 mg/kg in the test with Abeta 40 (setting [2]) amounted to 44%; in the test with Abeta 40 (setting [3]), 37%.

Turning to `NC1=N[C@@]2(COC1)c1cc(-c3cccnc3F)ccc1Oc1c(F)cc(C3=CCCOC3)cc12` [Example 132, (S)-2′-(5,6-dihydro-2H-pyran-3-yl)-4′-fluoro-7′-(2-fluoropyridin-3-yl)-2,6-dihydrospiro[[1,4]oxazine-3,9′-xanthen]-5-amine], the values for the IC50 in the test with Aβ40 (setting [4]) and on BACE were 1.3 nM and 0.3 nM, respectively. Also, the inhibition in vivo at 10 mg/kg worked out at 38% in the test on Abeta 40 (setting [2]) and 25% with Abeta 40 (setting [3]).

For the molecule `NC1=N[C@@]2(CCO1)c1cc(-c3cccnc3F)ccc1Oc1cnc(-c3ccnc(F)c3)cc12` [Example 149, (S)-7-(2-fluoropyridin-3-yl)-3-(2-fluoropyridin-4-yl)-5′,6′-dihydrospiro[chromeno[2,3-c]pyridine-5,4′-[1,3]oxazin]-2′-amine], the IC50 was 3.8 nM with Aβ40 (setting [4]) and 4.8 nM on BACE. For the same molecule, the inhibition in vivo at 10 mg/kg with Abeta 40 (setting [2]) was found to be 80%; with Abeta 40 (setting [3]), 62%.

As to `NC1=N[C@@]2(CCO1)c1cc(-c3cccnc3)ccc1Oc1c(F)cc(C3=CCCOC3)cc12` [Example 164, (S)-2′-(5,6-dihydro-2H-pyran-3-yl)-4′-fluoro-7′-(pyridin-3-yl)-5,6-dihydrospiro[[1,3]oxazine-4,9′-xanthen]-2-amine], the figures for the IC50 in the test with Aβ40 (setting [1]) and on BACE were 2.7 nM and 2.8 nM, respectively. Besides, the values for the inhibition in vivo at 10 mg/kg in the test with Abeta 40 (setting [2]) and in the test with Abeta 40 (setting [3]) were 35% and 12%, respectively.

Turning to `NC1=N[C@@]2(COC1)c1cc(-c3cccnc3F)ccc1Oc1c2cc(C2=CCCOC2)nc1F` [Example 249, (S)-3-(5,6-dihydro-2H-pyran-3-yl)-1-fluoro-7-(2-fluoropyridin-3-yl)-2′,6′-dihydrospiro[chromeno[2,3-c]pyridine-5,3′-[1,4]oxazin]-5′-amine], the IC50 with Aβ40 (setting [1]) and at BACE was 0.4 nM throughout. Besides, the inhibition in vivo at 10 mg/kg with Abeta 40 (setting [2]) came out at 72%; in the test with Abeta 40 (setting [3]) it was 59%.

For `NC1=N[C@@]2(CCO1)c1cc(-c3cncc(F)c3)ccc1Oc1cnc(C3=CCCOC3)cc12` [Example 146, (S)-3-(5,6-dihydro-2H-pyran-3-yl)-7-(5-fluoropyridin-3-yl)-5′,6′-dihydrospiro[chromeno[2,3-c]pyridine-5,4′-[1,3]oxazin]-2′-amine], the IC50 in the test with Aβ40 (setting [4]) worked out at 1.5 nM; on BACE, 2.2 nM. The results for the inhibition in vivo at 10 mg/kg with Abeta 40 (setting [2]) and in the test with Abeta 40 (setting [3]) were 75% and 62%, respectively.

As for `NC1=N[C@@]2(COC1)c1cc(-c3cccnc3F)ccc1Oc1c(F)cc(C3=CCOCC3)cc12` [Example 40, (S)-2′-(3,6-dihydro-2H-pyran-4-yl)-4′-fluoro-7′-(2-fluoropyridin-3-yl)-2,6-dihydrospiro[[1,4]oxazine-3,9′-xanthen]-5-amine], the results for the IC50 in the test with Aβ40 (setting [4]) and on BACE were 3 nM and 0.3 nM, respectively. Also, the inhibition in vivo at 10 mg/kg in the test with Abeta 40 (setting [2]) is 33%; in the test with Abeta 40 (setting [3]) it was 15%.

Turning to `NC1=N[C@@]2(CCO1)c1cc(-c3cccnc3F)ccc1Oc1cnc(-c3cncc(F)c3)cc12` [Example 155, (5S)-7-(2-fluoro-3-pyridinyl)-3-(5-fluoro-3-pyridinyl)-5′,6′-dihydrospiro[chromeno[2,3-c]pyridine-5,4′-[1,3]oxazin]-2′-amine], the IC50 was found to be 6.2 nM with Aβ40 (setting [4]) and 3.8 nM at BACE. In addition, the inhibition in vivo at 10 mg/kg was found to be 68% in the test with Abeta 40 (setting [2]) and 53% with Abeta 40 (setting [3]).

Take `NC1=N[C@@]2(COC1)c1cc(-c3cncc(F)c3)ccc1Oc1cnc(-c3ccc(F)c(F)c3)cc12` [Example 114, (S)-3-(3,4-difluorophenyl)-7-(5-fluoropyridin-3-yl)-2′,6′-dihydrospiro[chromeno[2,3-c]pyridine-5,3′-[1,4]oxazin]-5′-amine]: the IC50 in the test with Aβ40 (setting [4]) came out at 2.3 nM; on BACE, 0.4 nM. The inhibition in vivo at 10 mg/kg in the test with Abeta 40 (setting [2]) was found to be 54%; with Abeta 40 (setting [3]) it was 34%.

For the molecule `NC1=N[C@@]2(CCO1)c1cc(-c3cccnc3)ccc1Oc1c(F)cc(C3=CCOCC3)cc12` [Example 156, (4S)-2′-(3,6-dihydro-2H-pyran-4-yl)-4′-fluoro-7′-(3-pyridinyl)-5,6-dihydrospiro[1,3-oxazine-4,9′-xanthen]-2-amine], the IC50 was found to be 4.2 nM in the test with Aβ40 (setting [4]) and 4.8 nM at BACE. Moreover, the values for the inhibition in vivo at 10 mg/kg in the test on Abeta 40 (setting [2]) and in the test with Abeta 40 (setting [3]) were 27% and 8%, respectively.

With `NC1=N[C@@]2(COC1)c1cc(-c3cccnc3)ccc1Oc1cnc(-c3ccc(F)c(F)c3)cc12` [Example 115, (S)-3-(3,4-difluorophenyl)-7-(pyridin-3-yl)-2′,6′-dihydrospiro[chromeno[2,3-c]pyridine-5,3′-[1,4]oxazin]-5′-amine], the IC50 amounted to 1.6 nM in the test on Aβ40 (setting [4]) and 0.4 nM on BACE. In addition, the inhibition in vivo at 10 mg/kg in the test with Abeta 40 (setting [2]) came to 38%; in the test on Abeta 40 (setting [3]), 21%.

As to `NC1=N[C@@]2(CCO1)c1cc(-c3cccnc3F)ccc1Oc1c2cc(C2=CCCOC2)nc1F` [Example 110, (S)-3-(5,6-dihydro-2H-pyran-3-yl)-1-fluoro-7-(2-fluoropyridin-3-yl)-5′,6′-dihydrospiro[chromeno[2,3-c]pyridine-5,4′-[1,3]oxazin]-2′-amine], the IC50 in the test on Aβ40 (setting [4]) and at BACE was 0.5 nM in each case. Also, the values for the inhibition in vivo at 10 mg/kg with Abeta 40 (setting [2]) and in the test with Abeta 40 (setting [3]) were 86% and 79%, respectively.

Consider `NC1=N[C@@]2(CCO1)c1cc(-c3cccnc3F)ccc1Oc1cnc(C3=CCOCC3)cc12` [Example 111, (5S)-3-(3,6-dihydro-2H-pyran-4-yl)-7-(2-fluoro-3-pyridinyl)-5′,6′-dihydrospiro[chromeno[2,3-c]pyridine-5,4′-[1,3]oxazin]-2′-amine], for which the IC50 in the test with Aβ40 (setting [4]) is 2.1 nM; on BACE it was 1.8 nM. Moreover, the values for the inhibition in vivo at 10 mg/kg in the test with Abeta 40 (setting [2]) and in the test on Abeta 40 (setting [3]) were 81% and 67%, respectively.
